Assays:
bedstraw = assay: Test B pre/postemergence bedstraw; format: in vivo, Galium aparine
How it was run: (§1)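 Response is a visual 0-to-10 score relative to untreated plants, where 0 means no effect and 10 means complete control, taken twelve to sixteen days after application. Treatments went onto soil at planting and onto foliage of 1- to 4-leaf plants, using a surfactant-containing non-phytotoxic solvent.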

blackgrass = assay: Test B pre/postemergence blackgrass; format: in vivo, Alopecurus myosuroides
How it was run: as §1

surinam grass = assay: Test B pre/postemergence surinam grass; format: in vivo, Brachiaria decumbens
How it was run: as §1

cocklebur = assay: Test B pre/postemergence cocklebur; format: in vivo, Xanthium strumarium
How it was run: as §1

corn = assay: Test B pre/postemergence corn; format: in vivo, Zea mays
How it was run: as §1

giant foxtail = assay: Test B pre/postemergence giant foxtail; format: in vivo, Setaria faberii
How it was run: as §1

morningglory = assay: Test B pre/postemergence morningglory; format: in vivo, Ipomoea hederacea
How it was run: as §1

pigweed = assay: Test B pre/postemergence pigweed; format: in vivo, Amaranthus retroflexus
How it was run: as §1

rape = assay: Test B pre/postemergence rape; format: in vivo, Brassica napus
How it was run: as §1

soybean = assay: Test B pre/postemergence soybean; format: in vivo, Glycine max
How it was run: as §1

sugar beet = assay: Test B pre/postemergence sugar beet; format: in vivo, Beta vulgaris; conditions: for Plant response rating, Sugarbeets: Rate 250 g/ha
How it was run: as §1

velvetleaf = assay: Test B pre/postemergence velvetleaf; format: in vivo, Abutilon theophrasti; conditions: for Plant response rating, Velvetleaf: Rate 250 g/ha
How it was run: as §1

wheat = assay: Test B pre/postemergence wheat; format: in vivo, Triticum aestivum; conditions: for Plant response rating, Wheat: Rate 250 g/ha
How it was run: as §1

wild oat = assay: Test B pre/postemergence wild oat; format: in vivo, Avena fatua; conditions: for Plant response rating, Wild oats: Rate 250 g/ha
How it was run: as §1

rice = assay: Test B flood test rice; format: in vivo, Oryza sativa
How it was run: (§2)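 Flood test on plants grown to the 2-leaf stage; treated plants kept in greenhouse twelve to sixteen days, then visually rated against controls on a 0 (no effect) to 10 (complete control) scale.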

smallflower flatsedge = assay: Test B flood test smallflower flatsedge; format: in vivo, Cyperus difformis
How it was run: as §2

[1] = Postemergence, Rate 62 g/ha, scale 0 to 10, 0 is no effect, 10 is complete control
[2] = Preemergence, Rate 31 g/ha, visual rating, scale 0 to 10 (0 no effect, 10 complete control)
[3] = Preemergence, Rate 62 g/ha, scale 0 to 10 (0 no effect, 10 complete control)
[4] = Preemergence, Rate 125 g/ha, scale 0 to 10 (0 no effect, 10 complete control)
[5] = Preemergence, Rate 250 g/ha, scale of 0 to 10 where 0 is no effect and 10 is complete control
[6] = Rate 31 g/ha, Postemergence, scale 0 to 10
[7] = Postemergence, Rate 125 g/ha, scale of 0 to 10 where 0 is no effect and 10 is complete control
[8] = Postemergence, Rate 250 g/ha, scale 0 to 10, 0 no effect, 10 complete control
[9] = Rate 250 g/ha, Postemergence, scale 0 to 10, 0 is no effect, 10 is complete control
[10] = Preemergence, Rate 125 g/ha, 0 is no effect, 10 is complete control
[11] = Preemergence, scale of 0 to 10 where 0 is no effect and 10 is complete control
[12] = Postemergence, scale 0 to 10, 0 is no effect, 10 is complete control
[13] = Postemergence (flood test species), Rate 125 g/ha, scale of 0 to 10 where 0 is no effect and 10 is complete control
[14] = Rate 250 g/ha, Postemergence (flood test), scale 0 to 10, 0 is no effect, 10 is complete control

CC(C)N(C(=O)n1oc(=O)n(-c2cnn(C)c2)c1=O)c1ccc(F)cc1 [Compound 98]
Bedstraw plant response rating (bedstraw; [1]): 0
Bedstraw plant response rating (bedstraw; [2]): 0
Bedstraw plant response rating (bedstraw; [3]): 0
Plant response rating, Bedstraw (bedstraw; [4]): 0
Plant response rating, Bedstraw (bedstraw; [5]): 0
Bedstraw plant response rating (bedstraw; [6]): 0
Blackgrass plant response rating (blackgrass; [1]): 0
Blackgrass plant response rating (blackgrass; [7]): 0
Blackgrass plant response rating (blackgrass; [8]): 0
Blackgrass plant response rating (blackgrass; [2]): 0
Blackgrass plant response rating (blackgrass; [3]): 2
Plant response rating, Blackgrass (blackgrass; [4]): 6
Plant response rating, Blackgrass (blackgrass; [5]): 8
Blackgrass plant response rating (blackgrass; [6]): 0
B. signalgrass plant response rating (surinam grass; [1]): 0
B. signalgrass plant response rating (surinam grass; [8]): 0
B. signalgrass plant response rating (surinam grass; [2]): 0
B. signalgrass plant response rating (surinam grass; [3]): 0
Plant response rating, B. signalgrass (surinam grass; [4]): 0
Plant response rating, B. signalgrass (surinam grass; [5]): 0
B. signalgrass plant response rating (surinam grass; [6]): 0
B. signalgrass plant response rating (surinam grass; Rate 125 g/ha, Postemergence, scale 0 to 10, 0 no effect, 10 complete control): 0
Cocklebur plant response rating (cocklebur; [1]): 0
Cocklebur plant response rating (cocklebur; [7]): 0
Cocklebur plant response rating (cocklebur; [8]): 0
Cocklebur plant response rating (cocklebur; [2]): 0
Cocklebur plant response rating (cocklebur; [3]): 0
Plant response rating, Cocklebur (cocklebur; [4]): 0
Plant response rating, Cocklebur (cocklebur; [5]): 0
Cocklebur plant response rating (cocklebur; [6]): 0
Corn plant response rating (corn; [1]): 0
Corn plant response rating (corn; [7]): 0
Corn plant response rating (corn; [8]): 0
Corn plant response rating (corn; [2]): 0
Corn plant response rating (corn; [3]): 0
Plant response rating, Corn (corn; [4]): 0
Plant response rating, Corn (corn; [5]): 0
Corn plant response rating (corn; [6]): 0
Giant foxtail plant response rating (giant foxtail; [1]): 0
Giant foxtail plant response rating (giant foxtail; [7]): 0
Giant foxtail plant response rating (giant foxtail; [8]): 2
Giant foxtail plant response rating (giant foxtail; [2]): 4
Giant foxtail plant response rating (giant foxtail; [3]): 5
Plant response rating, Giant foxtail (giant foxtail; [4]): 8
Plant response rating, Giant foxtail (giant foxtail; [5]): 10
Giant foxtail plant response rating (giant foxtail; [6]): 0
Morningglory plant response rating (morningglory; [1]): 0
Morningglory plant response rating (morningglory; [7]): 0
Morningglory plant response rating (morningglory; [8]): 2
Morningglory plant response rating (morningglory; [2]): 0
Morningglory plant response rating (morningglory; [3]): 0
Plant response rating, Morningglory (morningglory; [4]): 0
Plant response rating, Morningglory (morningglory; [5]): 0
Morningglory plant response rating (morningglory; [6]): 0
Redroot pigweed plant response rating (pigweed; [1]): 0
Redroot pigweed plant response rating (pigweed; [7]): 0
Redroot pigweed plant response rating (pigweed; [2]): 0
Redroot pigweed plant response rating (pigweed; [3]): 4
Plant response rating, Redroot pigweed (pigweed; [4]): 4
Plant response rating, Redroot pigweed (pigweed; [5]): 5
Redroot pigweed plant response rating (pigweed; [6]): 0
Plant response rating, Redroot pigweed (pigweed; [9]): 0
Rape plant response rating (rape; [1]): 0
Rape plant response rating (rape; [7]): 0
Rape plant response rating (rape; [8]): 0
Rape plant response rating (rape; [2]): 0
Rape plant response rating (rape; [3]): 0
Plant response rating, Rape (rape; [4]): 0
Plant response rating, Rape (rape; [5]): 0
Rape plant response rating (rape; [6]): 0
Soybean plant response rating (soybean; [1]): 1
Soybean plant response rating (soybean; [7]): 1
Soybean plant response rating (soybean; [2]): 0
Soybean plant response rating (soybean; [3]): 0
Plant response rating, Soybean (soybean; [4]): 0
Plant response rating, Soybean (soybean; [5]): 0
Plant response rating, Soybean (soybean; [9]): 1
Sugarbeets plant response rating (sugar beet; [1]): 0
Sugarbeets plant response rating (sugar beet; [7]): 0
Sugarbeets plant response rating (sugar beet; [2]): 0
Sugarbeets plant response rating (sugar beet; [3]): 0
Sugarbeets plant response rating (0 to 10 scale) (sugar beet; [10]): 0
Plant response rating, Sugarbeets (sugar beet; [11]): 3
Plant response rating, Sugarbeets (sugar beet; [12]): 0
Velvetleaf plant response rating (velvetleaf; [1]): 0
Velvetleaf plant response rating (velvetleaf; [7]): 0
Velvetleaf plant response rating (velvetleaf; [2]): 0
Velvetleaf plant response rating (velvetleaf; [3]): 0
Velvetleaf plant response rating (0 to 10 scale) (velvetleaf; [10]): 0
Plant response rating, Velvetleaf (velvetleaf; [11]): 2
Plant response rating, Velvetleaf (velvetleaf; [12]): 0
Wheat plant response rating (wheat; [1]): 0
Wheat plant response rating (wheat; [7]): 0
Wheat plant response rating (wheat; [2]): 0
Wheat plant response rating (wheat; [3]): 0
Wheat plant response rating (0 to 10 scale) (wheat; [10]): 0
Plant response rating, Wheat (wheat; [11]): 1
Plant response rating, Wheat (wheat; [12]): 0
Wild oats plant response rating (wild oat; [1]): 0
Wild oats plant response rating (wild oat; [7]): 0
Wild oats plant response rating (wild oat; [2]): 0
Wild oats plant response rating (wild oat; [3]): 0
Wild oats plant response rating (0 to 10 scale) (wild oat; [10]): 0
Plant response rating, Wild oats (wild oat; [11]): 2
Plant response rating, Wild oats (wild oat; [12]): 0
Rice plant response rating (rice; [13]): 4
Rice plant response rating (rice; [1]): 0
Rice plant response rating (rice; Rate 31 g/ha, Postemergence section (flood test species), scale 0 to 10): 0
Plant response rating, Rice (rice; [14]): 6
S. Flatsedge plant response rating (smallflower flatsedge; [13]): 8
S. Flatsedge plant response rating (smallflower flatsedge; [1]): 0
Plant response rating, S. Flatsedge (smallflower flatsedge; [14]): 8

From patent US6737383B1, “Herbicidal oxadiazolidines” (priority 1999, dated 2004)
